In the METLIN SMRT retention time set (Domingo-Almenara et al. 2019):

Experiment: gradient 5% acetonitrile 3 min, to 50% in 2 min, to 85% in 15 min, held 3 min, 100 µL/min
Details: column: Zorbax Extend-C18 2.1 x 50 mm; eluents: water / acetonitrile, 0.1% formic acid
Method in brief: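 Mixtures of ~100 pure standards were chromatographed on a Zorbax Extend-C18 column (2.1 × 50 mm, 1.8 μm) at 100 μL/min using water and acetonitrile, each with 0.1% formic acid. Detection used a quadrupole time-of-flight mass spectrometer in positive and negative ionization mode, and data collection spanned 3 months. Retention time was obtained from adduct peaks picked computationally and each checked manually.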

SMILES	RP-LC retention time
CC(NC(=O)C1c2ccccc2CCN1C(=O)C1CC1)c1ccc(F)cc1 (centres undefined)	875 s
O=C1CC(c2noc(-c3ccccc3F)n2)CN1c1ccc(F)c(Cl)c1 (centres undefined)	1050 s
Cn1cc(CN2CCC(C(=O)NCc3ccccc3F)CC2)c2cc(Cl)ccc21	705 s
COc1ccc(Cl)cc1NC(=O)C1CCCN(c2nc3ccccc3nc2C(F)(F)F)C1 (centres undefined)	693 s
O=C(Cn1nc2nc(Nc3ccc(F)cc3)ccn2c1=O)NCc1ccc(F)cc1Cl	753 s
O=C(Cc1ccccc1F)Nc1ccc(-c2cn3c(C(=O)N4CCCC4)csc3n2)cc1	791 s
O=C(O)c1ccc(Nc2c(-c3ccc(Cl)cc3)nc3cnccn23)cc1	737 s
O=C(Cn1cnc2c(sc3nc(-c4ccccc4)ccc32)c1=O)NCc1ccccc1	953 s
CCc1nc2ccc(-c3noc(-c4ccc(C#N)cc4)n3)cc2n1CC	716 s
COc1cccc(-c2ccnc3nc(-c4cccs4)nn23)c1	906 s
COC(=O)c1nnn(-c2cc(Cl)ccc2C)c1C(=O)OC	933 s
O=C(Nc1cnc(-c2ccc(F)cc2)nc1)C1CC1	829 s
CN1C(=O)Cc2cc(NC(=O)CN3C(=O)c4ccccc4C3=O)ccc21	628 s
Cc1nc2cc(N3CCC(C(=O)Nc4ccc5c(c4)OCO5)CC3)cnc2nc1C	695 s
COc1ccc(-c2oc3ccc(OC)cc3c2C(=O)O)cc1	879 s
COCC(=O)NC(Cc1ccccc1)c1nc2ccccc2n1Cc1ccccc1F (centres undefined)	769 s
CNC(=O)C1CCCN(C(=O)Nc2ccc(NC(=O)Nc3ccccc3)cc2)C1 (centres undefined)	663 s
NC[C@@H]1O[C@H](c2ccccc2)Cc2c1ccc(O)c2O	662 s
Cc1ccsc1C(=O)Nc1ccccc1SCc1nnc(-c2ccccc2)o1	1080 s
COCc1nncn1C1CCN(S(=O)(=O)c2ccccc2C(F)(F)F)CC1	725 s
CCOCCOC1CCN(S(=O)(=O)c2ccc(OC)cc2)CC1	831 s

SMILES	RP-LC retention time
O=C(NC1CCCCCC1)C1CCN(Cc2cc3ccccc3n2Cc2cccc(F)c2)CC1	848 s
O=S(=O)(Nc1ccc2c(c1)OCCO2)c1ccc(-c2nnc(C3CCC3)o2)o1	842 s
Cn1ncc2c(N3CCOCC3)nc(C(=O)NCc3cccs3)nc21	686 s
CC(=O)Nc1ccc(C)cc1S(=O)(=O)N1CCc2c(c(-c3nnc(-c4ccccc4)o3)nn2C)C1	815 s
COc1ccccc1NC(=O)N1CCC2(CC1)NC(=O)c1ccc(Cl)cc1N2C	806 s
CCCC(=O)N1CCc2c([nH]c3ccc(OC)cc23)C1c1ccc(F)cc1 (centres undefined)	1040 s
COc1ccc(-c2noc(C3CCCN3C(=O)c3ccc(N(C)C)cc3)n2)cc1 (centres undefined)	961 s
Cc1noc(-c2ccc(OC3CN(C(=O)NCCc4ccccc4)C3)cc2)n1	880 s
CC(NC(=O)c1ccc2nc(-c3ccc(Cl)cc3)cn2c1)c1cccnc1 (centres undefined)	603 s
CN(C(=O)Cc1ccc(Cl)c(Cl)c1)C(CN1CCCC1)c1cccc(OCC(=O)O)c1 (centres undefined)	770 s
COc1ccc(N2C(=O)C3N=NN(Cc4nc(-c5ccc6c(c5)OCO6)no4)C3C2=O)cc1 (centres undefined)	911 s
Cc1sc(-c2noc(C3CCC3)n2)cc1NC(=O)c1ccc(C(F)(F)F)cc1	1150 s
COc1ccc(-c2nnc(-c3cccc(S(=O)(=O)N4CCCCC4)c3)o2)cc1OC	991 s
CC(C)n1cc(C2=CCN(S(=O)(=O)Cc3ccccc3)CC2)c2cccnc21	1020 s
CCC(=O)Nc1ccc(CCc2nc3ccc(C(=O)NC(C)CCc4ccccc4)cc3[nH]2)cc1 (centres undefined)	714 s
CC(C)CN1CCN(C(=O)c2cn3ccnc(-c4ccccc4)c3n2)CC1	606 s
O=C(CN1C(=O)CC(c2cccs2)=Nc2ccccc21)NC1CCCCC1	884 s
O=C(NCCc1ccccc1)C1CCN(C(=O)c2ncn3c2COC(c2ccccc2)C3)CC1 (centres undefined)	708 s
Cn1cc2c3c(cccc31)CN(C(=O)Nc1cc(Cl)ccc1Cl)CC2	1170 s
CCOc1ccc(-c2ccc(SCC)nn2)cc1	941 s
Cc1ccc(C(C)NC(=O)CN2C(=O)NC3(CCCCC3)C2=O)cc1 (centres undefined)	804 s

SMILES	RP-LC retention time
CCOc1ccc(CCNC(=O)c2nc(N3CCCC3)c3ccccc3n2)cc1OCC	732 s
CCOC(=O)C1CCCN(C(=O)C2CCN(c3cc(N4CCCCC4)ncn3)CC2)C1 (centres undefined)	666 s
O=C(NCc1ccccc1)C1CC(=O)N(c2ccc3c(c2)CCN3C(=O)C2CC2)C1 (centres undefined)	727 s
CCc1csc(-c2ccc(N3CCN(C(=O)c4c(F)cccc4F)CC3)nc2)n1	976 s
N#Cc1cccc(Cn2cc(S(=O)(=O)N3CCCCC3)ccc2=O)c1	842 s
Cc1cc(C)cc(C(=O)NCc2ccc3c(c2)nnn3C)c1	755 s
Cc1cc(C)cc(NC(=O)NCCc2cn(CC(C)C)c3ncccc23)c1	905 s
Cc1cccc(C)c1NS(=O)(=O)c1cc(-c2cc(C(F)(F)F)on2)sc1C	1230 s
O=C(c1ccc2nsnc2c1)N(Cc1ccsc1)Cc1ccco1	898 s
Cc1nn(CC(=O)NCCCN2CCCC2)c(=O)c2nn(-c3ccccc3)c(C)c12	597 s
CCc1ccccc1NC(=O)N1CCC(c2cc(=O)n3nccc3n2C)CC1	663 s
COc1ccc(NC(=O)c2c(O)c3sccc3n(C)c2=O)cc1Cl	1170 s
CCOCCCNC(=O)NCCn1cnc2cc(C(=O)N3CCCC3)ccc21	577 s
CN1C[C@@H]2c3ccccc3Oc3ccc(Cl)cc3[C@H]2C1	758 s
CCN(CC)S(=O)(=O)c1cccc(-c2nnc(-c3ccccc3Br)o2)c1	1100 s
CCOC(=O)c1cc(S(=O)(=O)N2CCCC2C(=O)N(CC)c2ccc(OC)cc2)cn1C (centres undefined)	892 s
CCC(=O)NCc1nc2c(n1C)CN(C(=O)c1cccc(Br)c1)CC2	591 s
COc1ccc(Nc2c(-c3ccc(C)cc3)nc3ncccn23)cc1OC	683 s
CCN(CC)c1ccc(C(=O)N2CCC(c3cc(N)on3)CC2)cc1	605 s
COc1ccc(C2(C(=O)N3CCC(Oc4ccccc4-c4nc(C)no4)C3)CC2)cc1 (centres undefined)	880 s

The next lines start with the values.

RP-LC retention time	SMILES
762 s	CCOC(=O)c1c(C)[nH]c(CCC(=O)NC(C)CC)c1C (centres undefined)
741 s	O=c1cccnn1CCCNS(=O)(=O)c1ccc(F)c(C(F)(F)F)c1
894 s	COc1ccc(C(=O)Nc2ccc3c(c2)Sc2ncccc2C(=O)N3C(C)C)cc1F
633 s	O=C1CCc2cc(NC(=O)c3n[nH]c4ccccc34)ccc2N1
820 s	CCOCCCNC(=O)CN1c2ccc(F)cc2-c2ccccc2S1(=O)=O
805 s	O=C(Nc1cccs1)Nc1ccccc1NC(=O)c1ccccc1C(F)(F)F
856 s	Cc1ccc(S(=O)(=O)C2CS(=O)(=O)CC2S(=O)(=O)c2ccc(C)cc2)cc1 (centres undefined)
696 s	Cc1c(-c2cccc(NC(=O)c3cccc(Br)c3)c2)nc2ncccn12
793 s	CCOc1ccccc1NC(=O)Cc1csc2nc(-c3ccc(OC)c(OC)c3)cn12
996 s	O=C(c1nnn2c1COC(c1ccc(Cl)cc1)C2)N1CCN(C(=O)C2(c3ccccc3)CC2)CC1 (centres undefined)
680 s	C1CCCC(NC2=NCCO2)CCC1
965 s	O=C(Nc1ccccc1)N(Cc1cccnc1)C1CN(Cc2ccc(F)c(F)c2)C1
628 s	O=C1CCCN1CCCN1C(=O)[C@H]2CN(Cc3cccc(Cl)c3)C[C@H]2C1=O
621 s	O=C1CCCc2cc(S(=O)(=O)NCCN3CCN(c4ccccc4)CC3)ccc2N1
818 s	Fc1ccc(-c2nc3cnccn3c2Nc2ccc3c(c2)OCCO3)cc1
991 s	COc1ccccc1-c1nnc(SCc2cccc(C(F)(F)F)c2)o1
756 s	COCCN1C(=O)c2ccccc2C(C(=O)NCCCOC(C)C)C12CCCCC2 (centres undefined)
876 s	Cn1cc2c3c(cccc31)CN(C(=O)c1cccs1)CC2
569 s	O=C(NCCN1CCCCCC1)c1csc(-c2ccnc(N3CCOCC3)c2)n1
1270 s	CCc1nc(-c2cccc(-c3noc(COc4ccc(OC)cc4)n3)c2)cs1
604 s	CCC(=O)N1CCN(c2nc(C)cc(N3CCCC3)n2)CC1
1050 s	Cc1ccc(-n2c(N3CCCC(C(=O)Nc4ccc(F)c(F)c4)C3)nc3ccsc3c2=O)cc1 (centres undefined)
749 s	O=C(NCC1CCCO1)C(=O)NCC(c1cccs1)S(=O)(=O)c1ccc(F)cc1 (centres undefined)
587 s	COc1cccc(NC(=O)Nc2ccc3nc(N4CCN(C)CC4)cc(C)c3c2)c1
780 s	COc1ccc(-c2nnc(CC(=O)NC3CCCCCC3)o2)cc1
678 s	CCN1CCN(C(=O)c2cc(-c3ccc(C)cc3)cn2CC)CC1
705 s	COc1ccc(N2CCN(C(=O)C3CCN(C(=O)C4Sc5ccccc5NC4=O)CC3)CC2)cc1 (centres undefined)
